Experimental findings from article PMC4286194 (Biochemical Journal, 2015) are described below.

SMILES strings stand for the structures.

Holding throughout (format): cell-based, mouse
Test [1] has as its system Bone-marrow-derived macrophages. Nature of the test: IL-10 secretion (BIOPLEX) in LPS-stimulated macrophages. The settings on record: 10 μM; LPS-stimulated. The method, then:
The concentration of TNFα, IL-6, IL-10 and IL-12p40 in cell-free culture supernatants were measured using the Bio-Plex Pro Assay system (Bio-Rad).

The test system is the same in test [2]. Nature of the test: CREB-dependent gene transcription (qPCR). The settings on record: macrophages. The protocol:
mRNA was extracted from cells using the MicroElute Total RNA kit following the manufacturers’ instructions (Omega Bio-Tek). cDNA was generated from 0.5 μg of total RNA using the iScript cDNA synthesis kit and quantified by quantitative real-time PCR (qPCR) using the SsoFast EvaGreen Supermix on a CFX384 real-time system (Bio-Rad Laboratories). The relative expression of each gene was calculated from CT values using the Pfaffl method and was normalized against the mRNA levels of housekeeping genes including 18S RNA and GAPDH. Results are reported relative to untreated control cells, which were set to 1.
(Real-time PCR tracks product formation cycle by cycle.)

For test [3] the test system is unchanged. The experiment in a line: TLR signalling immunoblots (MAPKs, MSK1/2, CREB, IKKs, TBK1). The settings on record: 3 μM bosutinib, 0.3 μM dasatinib or 0.5 μM HG-9-91-01. On the technique in general: In western blotting, separated proteins are transferred to a membrane and probed.
Description: RAW264.7 cells were cultured in DMEM containing 10% FBS, 2 mM glutamine and penicillin and streptomycin. […] Cells were treated for 1 h with or without inhibitors and then stimulated for up to 24 h with either 1 μg/ml Pam3CSK4 or 100 ng/ml LPS.
Cells were extracted in lysis buffer [50 mM Tris/HCl, pH 7.4, 1 mM EDTA, 1 mM EGTA, 50 mM NaF, 5 mM sodium pyrophosphate, 10 mM sodium β-glycerol 1-phosphate, 1 mM DTT, 1 mM sodium orthovanadate, 0.27 M sucrose, 1% (v/v) Triton X-100, 1 μg/ml aprotinin, 1 μg/ml leupeptin and 1 mM PMSF]. Cell extracts were clarified by centrifugation and protein concentrations were determined using the Bradford assay. To immunoprecipitate endogenous CRTC3, 1 mg of cell extract was incubated with 5 μg of anti-CRTC3 [13] covalently cross-linked on to Protein G–Sepharose. Immune complexes were washed three times with lysis buffer, eluted in 1% SDS and separated by SDS/PAGE. To detect proteins in cell lysates, 20 μg of protein extract was separated by SDS/PAGE. After transfer to PVDF membranes, proteins were detected by immunoblotting and visualized by treating the blots with ECL (GE Healthcare) followed by autoradiography.

In the case of `Cc1ccc(NC(=O)c2ccc(CN3CCN(C)CC3)cc2)cc1Nc1nccc(-c2cccnc2)n1` [Imatinib, imatinib], the IL-10 production result in test [1] was “failed to elevate IL-10 production”. Also, in test [2], the “CREB-dependent gene transcription and IL-10 production” value is “fail to induce CREB-dependent gene transcription and to elevate IL-10 production”.
With `COc1ccc(N(C(=O)Nc2c(C)cccc2C)c2cc(Nc3ccc(N4CCN(C)CC4)cc3)ncn2)c(OC)c1` [HG-9-91-01], the “TLR-stimulated phosphorylation of ERK1/2, JNK1/2, p38α/β MAPKs, MSK1/2, IKKα/β, TBK1 and their direct substrates” value in test [3] is given as “occurred normally”.
In the case of `CCN(CC)CCNC(=O)c1c(C)[nH]c(/C=C2\C(=O)Nc3ccc(F)cc32)c1C` [Sunitinib, sunitinib], the IL-10 production entry in test [1] is “failed to elevate IL-10 production”.
Still for that read-out and setting: under `COc1cc2ncnc(Nc3ccc(F)c(Cl)c3)c2cc1OCCCN1CCOCC1` [Gefitinib, gefitinib] stands “failed to elevate IL-10 production”; under `CS(=O)(=O)CCNCc1ccc(-c2ccc3ncnc(Nc4ccc(OCc5cccc(F)c5)c(Cl)c4)c3c2)o1` [Lapatinib, lapatinib], “failed to elevate IL-10 production”; under `C#Cc1cccc(Nc2ncnc3cc(OCCOC)c(OCCOC)cc23)c1` [Erlotinib, erlotinib], “failed to elevate IL-10 production”.
The same measure, in the same setting: under `COc1cc2/c(=N/c3ccc(Br)cc3F)nc[nH]c2cc1OCC1CCN(C)CC1` [Vandetinib, vandetinib] stands “failed to elevate IL-10 production”.
